# Measured values reported in BindingDB's records for doi:10.1016/j.bmcl.2006.12.025 (Pharmacopeia Drug Discovery, 2007).
# Molecular target: Prostacyclin receptor (Homo sapiens, UniProt P43119)
# Assay: IP Receptor Filter Binding Assay and cAMP Assay
# Settings: pH 7.4; 22 °C
# From the text: IP receptor binding activity was quantified via a filter binding assay measuring displacement of [3H]-Iloprost binding to human platelet membranes. Raw data were fit to the […] to calculate IC50 values. EC50/IC50 values were obtained from functional antagonism assay by measuring the inhibition of cAMP production induced by Iloprost in human erythroleukemia (HEL) cells using a Perkin-Elmer LANCETM cAMP detection kit.
# Chain of Prostacyclin receptor (P43119 whole entry): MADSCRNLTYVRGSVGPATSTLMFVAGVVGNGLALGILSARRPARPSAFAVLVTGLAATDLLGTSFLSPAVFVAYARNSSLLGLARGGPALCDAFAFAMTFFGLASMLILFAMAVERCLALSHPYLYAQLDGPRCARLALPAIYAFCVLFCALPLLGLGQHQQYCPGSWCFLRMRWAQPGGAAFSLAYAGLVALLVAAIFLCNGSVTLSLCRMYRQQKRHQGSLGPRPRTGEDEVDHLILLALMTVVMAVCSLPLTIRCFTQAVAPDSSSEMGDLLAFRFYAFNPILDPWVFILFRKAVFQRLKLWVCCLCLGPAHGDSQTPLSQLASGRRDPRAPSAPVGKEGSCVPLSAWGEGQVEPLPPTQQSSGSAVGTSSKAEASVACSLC
row,Structure (SMILES),IC50 [nM]
1,"CC(=O)Nc1cccc(-c2ccc(Cc3ocnc3C(=O)NC(C)c3ccccc3)cc2)c1 (racemic) [5-{[4-(3-acetamidophenyl)phenyl]methyl}-N-(1-phenylethyl)-1,3-oxazole-4-carboxamide]",278
2,"CC(=O)Nc1cccc(-c2ccc(Cc3ocnc3C(=O)NCCN(C)C)cc2)c1 [N-[2-(dimethylamino)ethyl]-5-{[4-(3-acetamidophenyl)phenyl]methyl}-1,3-oxazole-4-carboxamide]",3310
3,"CC(=O)Nc1cccc(-c2ccc(Cc3ocnc3C(=O)NCCc3cccnc3)cc2)c1 [5-{[4-(3-acetamidophenyl)phenyl]methyl}-N-[2-(pyridin-3-yl)ethyl]-1,3-oxazole-4-carboxamide]",741
4,"CNC(=O)c1ncoc1Cc1ccc(-c2cccc(NC(C)=O)c2)cc1 [5-{[4-(3-acetamidophenyl)phenyl]methyl}-N-methyl-1,3-oxazole-4-carboxamide]",3310
5,"CC(=O)Nc1cccc(-c2ccc(Cc3ocnc3C(=O)N(C)CCc3ccccc3)cc2)c1 [5-{[4-(3-acetamidophenyl)phenyl]methyl}-N-methyl-N-(2-phenylethyl)-1,3-oxazole-4-carboxamide]",2130
6,"CC(=O)Nc1cccc(-c2ccc(Cc3ocnc3C(=O)N[C@@H](Cc3ccccc3)C(=O)O)cc2)c1 [(2S)-2-[(5-{[4-(3-acetamidophenyl)phenyl]methyl}-1,3-oxazol-4-yl)formamido]-3-phenylpropanoic acid]",16
7,"CC(=O)Nc1cccc(-c2ccc(Cc3ocnc3C(=O)NC(C)C)cc2)c1 [5-{[4-(3-acetamidophenyl)phenyl]methyl}-N-(propan-2-yl)-1,3-oxazole-4-carboxamide]",3580
8,"CC(=O)Nc1cccc(-c2ccc(Cc3ocnc3C(=O)NC[C@@H](C)c3ccccc3)cc2)c1 [5-{[4-(3-acetamidophenyl)phenyl]methyl}-N-[(2S)-2-phenylpropyl]-1,3-oxazole-4-carboxamide]",296
9,"CC(=O)Nc1cccc(-c2ccc(Cc3ocnc3C(=O)N[C@H](Cc3ccccc3)C(=O)O)cc2)c1 [(2R)-2-[(5-{[4-(3-acetamidophenyl)phenyl]methyl}-1,3-oxazol-4-yl)formamido]-3-phenylpropanoic acid]",831
10,"CC(=O)Nc1cccc(-c2ccc(Cc3ocnc3C(=O)N[C@H]3C[C@@H]3c3ccccc3)cc2)c1 [5-{[4-(3-acetamidophenyl)phenyl]methyl}-N-[(1S,2R)-2-phenylcyclopropyl]-1,3-oxazole-4-carboxamide]",358
11,"CC(=O)Nc1cccc(-c2ccc(Cc3ocnc3C(=O)NCCc3ccncc3)cc2)c1 [5-{[4-(3-acetamidophenyl)phenyl]methyl}-N-[2-(pyridin-4-yl)ethyl]-1,3-oxazole-4-carboxamide]",476
12,"CC(=O)Nc1cccc(-c2ccc(Cc3ocnc3C(=O)NCc3ccccc3)cc2)c1 [N-benzyl-5-{[4-(3-acetamidophenyl)phenyl]methyl}-1,3-oxazole-4-carboxamide]",66
13,"CC(=O)Nc1cccc(-c2ccc(Cc3ocnc3C(=O)Nc3ccccc3)cc2)c1 [5-{[4-(3-acetamidophenyl)phenyl]methyl}-N-phenyl-1,3-oxazole-4-carboxamide]",828
14,"CC(=O)Nc1cccc(-c2ccc(Cc3ocnc3C(=O)NCCc3ccccc3)cc2)c1 [5-{[4-(3-acetamidophenyl)phenyl]methyl}-N-(2-phenylethyl)-1,3-oxazole-4-carboxamide]",138
15,"CC(=O)Nc1cccc(-c2ccc(Cc3ocnc3C(=O)NCCc3ccccn3)cc2)c1 [5-{[4-(3-acetamidophenyl)phenyl]methyl}-N-[2-(pyridin-2-yl)ethyl]-1,3-oxazole-4-carboxamide]",1010
16,"CC(=O)Nc1cccc(-c2ccc(Cc3ocnc3C(=O)NC[C@H](C)c3ccccc3)cc2)c1 [5-{[4-(3-acetamidophenyl)phenyl]methyl}-N-[(2R)-2-phenylpropyl]-1,3-oxazole-4-carboxamide]",51

# Same assay, conditions: pH 7.4; 22 °C; read-out: IC50
row,Structure (SMILES),IC50 [nM]
1,"CC(=O)Nc1cccc(-c2ccc(Cc3ocnc3C(=O)NC(C)C)cc2)c1 [5-{[4-(3-acetamidophenyl)phenyl]methyl}-N-(propan-2-yl)-1,3-oxazole-4-carboxamide]",12400
